Test results published in patent US9062057B2, “CCR5 antagonists for treating HIV” (Purdue Research Foundation, priority 2010, dated 2015).

Molecular target: CCR5 chemokine receptor (Homo sapiens, UniProt P51681)
Test: Inhibition Data (IC50; no method described)
Settings: assay not described, read-out: Activity (*) (IC50 class)

Chain of CCR5 chemokine receptor (P51681 whole entry): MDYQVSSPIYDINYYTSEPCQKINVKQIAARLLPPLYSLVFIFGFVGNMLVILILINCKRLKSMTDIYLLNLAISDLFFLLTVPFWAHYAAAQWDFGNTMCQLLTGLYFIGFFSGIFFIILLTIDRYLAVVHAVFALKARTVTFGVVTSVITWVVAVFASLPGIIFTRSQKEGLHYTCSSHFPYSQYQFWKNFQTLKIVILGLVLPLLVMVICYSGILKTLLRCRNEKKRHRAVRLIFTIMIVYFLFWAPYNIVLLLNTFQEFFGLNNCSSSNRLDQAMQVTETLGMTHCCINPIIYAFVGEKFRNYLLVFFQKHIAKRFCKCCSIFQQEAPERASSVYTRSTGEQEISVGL

IC50: < 1000 nM
Compound: Cc1ccc(S(=O)(=O)N[C@@H](CCN2C3CCC2CC(n2c(C)nnc2C2CO[C@H]4OCCC24)C3)c2ccccc2)cc1 (stereo partly shown) [Example 83]
